“Also recorded” adds a separate entry of the source. Read-outs that look alike come from different tables or passages of the source.

As a reminder, the zone of inhibition is the extent of the growth-free halo in a diffusion test.

Data set [1] can be described thus: Stability in aqueous solution. Type of data set: physicochemical. Particulars: for Stability: hydrochloride(s).
The next data set concerns Escherichia coli PG8. The data set can be described thus: Stability to β-lactamases, disc method, non-added control (Table 2). Format: cell-based. Particulars: PG8, read-out: Diameter of growth inhibition zone (by the disc method). The procedure: (§1) Note: Used concentration of the compound; 100 µg/ml Employed strain;
(§2) Escherichia coli PG8 Culture medium; Nutrient agar medium (pH 7.0)
(§3) containing diaminopimelic acid (20 mg/l)

Data set [2] addresses T1, Penicillinase (Bacillus cereus, UniProt P10424).
T1 construct: purchased Calbio Chemical, U.S.A; host or cells: Bacillus cereus
The data set can be described thus: Stability to β-lactamases, disc method, penicillinase (Table 2). Type of data set: cell-based. To be noted: penicillinase 0.048 unit/ml; E. coli PG8; compound 100 g/ml (so in the source). The procedure:
as §1, §2, §3
(Note 2) Penicillinase derived from Bacillus cereus (produced by Calbio
Chemical, U.S.A.)0.048 unit/ml.

Data set [3] concerns the target T2, Cephalosporinase (Enterobacter cloacae, UniProt P05364).
T2 construct: host or cells: Enterobacter cloacae
The data set can be described thus: Stability to β-lactamases, disc method, cephalosporinase (Table 2). Type of data set: cell-based. Particulars: cephalosporinase 0.025 unit/ml; E. coli PG8; compound 100 g/ml (so in the source). As to the method: as §1, §2, §3
(Note 3) Cephalosprinase is derived from Enterobacter cloacae, 0.025

The subject of data set [4] is Pseudomonas aeruginosa C141. The data set can be described thus: Stability to β-lactamases, disc method, non-added control (Table 5). Particulars: read-out: Diameter of growth inhibition zone (by the disc method); for zone of inhibition at 100 µg/mL: P. aeruginosa C141, other compounds 100 μg/ml. Type of data set: cell-based. As to the method:
(§4) Concentration of the compound (II) 1000 μg/ml
(§5) Concentration of the other compounds: 100 μg/ml
(§6) Strain used: Pseudomonas aeruginosa C141
(§7) Culture medium: Nutrient agar medium (pH 7.0) containing diaminopimeric

Data set [5] addresses T1, Penicillinase. The data set can be described thus: Stability to β-lactamases, disc method, penicillinase (Table 5). Type of data set: cell-based. To be noted: penicillinase 0.048 unit/ml, P. aeruginosa C141. As to the method:
as §4, §5, §6, §7
(Note 3) Penicillinase (Calbio Chemical, U.S.A.) derived from Bacillus

Data set [6] addresses T2, Cephalosporinase. As to the kind of experiment: Stability to β-lactamases, disc method, cephalosporinase (Table 5). Particulars: cephalosporinase 0.025 unit/ml, P. aeruginosa C141. Type of data set: cell-based. The procedure: as §4, §5, §6, §7
(Note 4) The enzyme is derived from Enterobacter cloacae, 0.025 unit/ml.

Data set [7] is described as follows: Acute toxicity, subcutaneous administration to mice. Format: in vivo. Particulars: for toxicity: conclusion from 1 g/kg s.c. in mice; for death: mice, subcutaneous, 1 g/kg, sodium salt.
For a further data set, the system named is Escherichia coli CP 13. As to the kind of experiment: Antibacterial spectrum, growth inhibition zone (Table 4). Particulars: CP13, E. coli CP 13, compound (II) 1000 μg/ml, pH 7.0, sodium salt, read-out: Diameter of growth inhibition zone. Format: cell-based. The procedure:
as §7
(§8) Concentration of the compound (II): 1000 μg/ml.

The test system of data set [8] is Pseudomonas aeruginosa C141. The description is as above. Format: cell-based. To be noted: compound (II) 1000 μg/ml, pH 7.0, sodium salt, read-out: Diameter of growth inhibition zone. The procedure:
as §7, §8

For data set [9], the system named is Staphylococcus aureus FDA 209P. Described as above. Type of data set: cell-based. To be noted: FDA209P, compound (II) 1000 μg/ml, pH 7.0, sodium salt, read-out: Diameter of growth inhibition zone. As to the method: as §7, §8
The subject of a further data set is β-lactamases. The data set can be described thus: Stability to β-lactamases (statement in words). Format: cell-based.
A further data set deals with gram-negative bacteria. The data set can be described thus: Antibacterial activity against gram-negative bacteria (statement in words). Type of data set: cell-based.
Data set [10] concerns Alcaligenes faecalis IFO 13111. The data set can be described thus: MIC, antibacterial spectrum (nutrient agar). Type of data set: cell-based. To be noted: IFO13111, nutrient agar pH 7.0, 10^6 CFU/ml, sodium salt, read-out: Minimal inhibitory concentration. From the text: (§9) | Culture medium: Nutrient agar (pH 7.0) concentration of microorganisms | inoculated: 10^6 CFU (colony forming unit)/ml.

For data set [11], the system named is Bacillus megaterium IFO 12108. As to the kind of experiment: MIC, antibacterial spectrum (nutrient agar). Type of data set: cell-based. Particulars: Priestia megaterium, IFO12108, nutrient agar pH 7.0, 10^6 CFU/ml, sodium salt, read-out: Minimal inhibitory concentration.
Excerpt: as §9

Data set [12] has as its system Bacillus subtilis NIHJ PCI219. The data set can be described thus: MIC, antibacterial spectrum (nutrient agar). Type of data set: cell-based. To be noted: NIHJPCI219, nutrient agar pH 7.0, 10^6 CFU/ml, sodium salt, read-out: Minimal inhibitory concentration.
Excerpt: as §9

Data set [13] deals with Escherichia coli NIHJ JC-2. As to the kind of experiment: MIC, antibacterial spectrum (nutrient agar). To be noted: NIHJJC2, nutrient agar pH 7.0, 10^6 CFU/ml, sodium salt, read-out: Minimal inhibitory concentration. Type of data set: cell-based.
Excerpt: as §9

The subject of data set [14] is Klebsiella pneumoniae IFO 3317. As to the kind of experiment: MIC, antibacterial spectrum (nutrient agar). Format: cell-based. Particulars: IFO3317, nutrient agar pH 7.0, 10^6 CFU/ml, sodium salt, read-out: Minimal inhibitory concentration.
Excerpt: as §9

In data set [15] the test system is Proteus mirabilis ATCC 21100. As to the kind of experiment: MIC, antibacterial spectrum (nutrient agar). Type of data set: cell-based. To be noted: ATCC21100, nutrient agar pH 7.0, 10^6 CFU/ml, sodium salt, read-out: Minimal inhibitory concentration.
Excerpt: as §9

Data set [16] deals with Proteus vulgaris IFO 3988. As to the kind of experiment: MIC, antibacterial spectrum (nutrient agar). To be noted: IFO3988, nutrient agar pH 7.0, 10^6 CFU/ml, sodium salt, read-out: Minimal inhibitory concentration. Type of data set: cell-based.
Excerpt: as §9

In data set [17] the test system is Pseudomonas aeruginosa IFO 3080. As to the kind of experiment: MIC, antibacterial spectrum (nutrient agar). Format: cell-based. To be noted: IFO3080, nutrient agar pH 7.0, 10^6 CFU/ml, sodium salt, read-out: Minimal inhibitory concentration.
Excerpt: as §9

For data set [18], the system named is Salmonella typhimurium IFO 12529. As to the kind of experiment: MIC, antibacterial spectrum (nutrient agar). Format: cell-based. Particulars: Salmonella enterica, nutrient agar pH 7.0, 10^6 CFU/ml, sodium salt, read-out: Minimal inhibitory concentration.
Excerpt: as §9

The test system of data set [19] is Serratia marcescens IFO 12648. The data set can be described thus: MIC, antibacterial spectrum (nutrient agar). Type of data set: cell-based. To be noted: IFO12648, nutrient agar pH 7.0, 10^6 CFU/ml, sodium salt, read-out: Minimal inhibitory concentration.
Excerpt: as §9

The test system of data set [20] is Staphylococcus aureus FDA 209P. The data set can be described thus: MIC, antibacterial spectrum (nutrient agar). To be noted: FDA209P, nutrient agar pH 7.0, 10^6 CFU/ml, sodium salt, read-out: Minimal inhibitory concentration. Format: cell-based.
Excerpt: as §9

Another data set deals with gram-positive bacteria. As to the kind of experiment: Antibacterial activity against gram-positive bacteria (statement in words). Type of data set: cell-based.
A short description of a further data set: Solubility. Particulars: sodium salt.

T1 sequence (P10424 44-306): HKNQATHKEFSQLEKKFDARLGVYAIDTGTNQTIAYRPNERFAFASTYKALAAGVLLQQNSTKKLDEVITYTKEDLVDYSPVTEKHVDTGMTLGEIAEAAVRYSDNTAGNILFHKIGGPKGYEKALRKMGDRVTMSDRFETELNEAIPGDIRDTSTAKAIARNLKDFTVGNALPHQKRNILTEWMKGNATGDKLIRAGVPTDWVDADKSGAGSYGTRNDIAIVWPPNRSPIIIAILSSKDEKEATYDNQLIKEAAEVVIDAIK
T2 sequence (P05364 21-381): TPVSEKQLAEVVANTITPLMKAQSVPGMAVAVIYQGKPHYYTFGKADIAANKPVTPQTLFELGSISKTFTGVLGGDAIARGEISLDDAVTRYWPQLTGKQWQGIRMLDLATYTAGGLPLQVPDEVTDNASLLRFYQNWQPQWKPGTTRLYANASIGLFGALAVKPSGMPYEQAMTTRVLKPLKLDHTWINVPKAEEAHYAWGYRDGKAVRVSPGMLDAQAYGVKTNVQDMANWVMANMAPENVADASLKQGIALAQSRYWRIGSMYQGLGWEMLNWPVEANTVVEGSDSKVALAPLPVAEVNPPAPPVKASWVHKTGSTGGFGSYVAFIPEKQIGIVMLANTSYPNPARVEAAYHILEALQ

For the compound `CC(N)C(=O)NC(C)C(=O)NC(CCCNC(=N)N)C(O)CC(=O)OCC1=C(C(=O)O)N2C(=O)[C@@H](NC(=O)CCCC(N)C(=O)O)C2SC1` (stereo partly drawn) [TAN-547E], the Stability result in [1] (acidic aqueous solution) was “Slightly unstable”; in data set [1] (basic aqueous solution) it was “Unstable”; in data set [1] (neutral aqueous solution), “Slightly unstable”.
`CO[C@@]1(NC(=O)CCC[C@@H](N)C(=O)O)C(=O)N2C(C(=O)O)=C(COC(N)=O)CS[C@@H]21` [CMC, Cephamycin C]: the zone of inhibition at 100 µg/mL was determined as 30 mm in the data set with Escherichia coli PG8 and 27.5 mm in [4]. Moreover, the “Diameter of growth inhibition zone (by the disc method)” value (from here on “Diameter of growth inhibition zone”) on Penicillinase [2] is 30 mm; at Cephalosporinase [3], < 8 mm; at Penicillinase [5] (other compounds 100 μg/ml), 27.5 mm; on Cephalosporinase [6] (other compounds 100 μg/ml), < 8 mm.
For the compound `CC(N)C(=O)NC(C)C(=O)NC(C)C(=O)NC(CCCNC(=N)N)C(O)CC(=O)OCC1=C(C(=O)O)N2C(=O)[C@@H](NC(=O)CCCC(N)C(=O)O)C2SC1` (stereo partly drawn) [TAN-547F], the Stability entry in data set [1] (acidic aqueous solution) was “Slightly unstable”; in data set [1] (basic aqueous solution), “Unstable”; in data set [1] (neutral aqueous solution) it was “Slightly unstable”.
Consider `CC(N)C(=O)NC(C)C(=O)NC(CCCNC(=N)N)C(O)CC(=O)OCC1=C(C(=O)O)N2C(=O)[C@@](NC=O)(NC(=O)CCCC(N)C(=O)O)C2SC1` (stereo partly drawn) [TAN-547B], for which the Stability entry in [1] (acidic aqueous solution) is “Unstable”; in data set [1] (basic aqueous solution), “Unstable”; in [1] (neutral aqueous solution), “slightly unstable”.
In the case of `N[C@H](CCCC(=O)N[C@@H]1C(=O)N2C(C(=O)O)=C(CO)CS[C@H]12)C(=O)O` [DCPC, deacetylcephalosporin C], the zone of inhibition at 100 µg/mL (in the data set with Escherichia coli PG8; in [4]) was 30 mm in each case. For the same compound, the “Diameter of growth inhibition zone” value at Penicillinase [2] is recorded as 30 mm; at Cephalosporinase [3], < 8 mm; on Penicillinase [5] (other compounds 100 μg/ml) it was 30 mm; at Cephalosporinase [6] (other compounds 100 μg/ml) it was < 8 mm.
As to `CC(N)C(=O)NC(CCCNC(=N)N)C(O)CC(=O)OCC1=C(C(=O)O)N2C(=O)[C@@H](NC(=O)CCCC(N)C(=O)O)C2SC1` (stereo partly drawn) [TAN-547D], the Stability entry in data set [1] (acidic aqueous solution) is recorded as “Slightly unstable”; in data set [1] (basic aqueous solution), “Unstable”; in [1] (neutral aqueous solution), “Slightly unstable”.
In the case of `N[C@]1(NC=O)C(=O)N2C(C(=O)O)=C(CO)CSC21` (stereo partly drawn) [compound (II)], the toxicity result in data set [7] is “low toxicity”. The death result in data set [7] was “no death was observed”. The zone of inhibition at 1000 µg/mL in the data set on Escherichia coli CP 13 is 11 mm; in data set [8] it was 19 mm; in data set [9], < 8 mm; in [4] (P. aeruginosa C141, compound (II) 1000 μg/ml), 19 mm. Besides, the “Diameter of growth inhibition zone” value at Penicillinase [5] (compound (II) 1000 μg/ml) and at Cephalosporinase [6] (compound (II) 1000 μg/ml) was 19 mm in each case. In the data set on β-lactamases, the “Stability to β-lactamases” value is recorded as “stable to various β-lactamases”. In addition, the antibacterial activity entry in the data set on gram-negative bacteria was “exhibits antibacterial activity; also recorded: exhibits antimicrobial activity”. The “stability in aqueous solution” value in [1] (compared with a cephem compound which is acetylated (--CH2OCOCH3 at 3-position)) is “remarkably more stable in aqueous solution”.
As to `NC(CCCC(=O)N[C@]1(NC=O)C(=O)N2C(C(=O)O)=C(CO)CSC21)C(=O)O` (stereo partly drawn) [7-FA-DCPC, 7-formylamino-deacetylcephalosporin C], the MIC in data set [10] is 12.5 mg/L; in data set [11] it was 100 mg/L; in [12], 100 mg/L; in data set [13] it was 50 mg/L; in [14], 50 mg/L; in [15], 12.5 mg/L. Moreover, the MIC in data set [16] amounted to 25 mg/L; in [17], 100 mg/L; in data set [18], 25 mg/L; in data set [19] it was 25 mg/L; in data set [20], 100 mg/L. Also, the zone of inhibition at 100 µg/mL with Escherichia coli PG8 amounted to 23 mm. The “Diameter of growth inhibition zone” value on Penicillinase [2] and at Cephalosporinase [3] was 23 mm throughout. The toxicity entry in [7] is “low toxicity”. The death entry in data set [7] is “no death was observed”. Moreover, the “Stability to β-lactamases” value in the data set with β-lactamases is on record as “stable to various β-lactamases”; with β-lactamases (listed as compound (IV)), “stable to β-lactamase producing strains”. Also, the antibacterial activity result was “exhibits antibacterial activity” with gram-positive bacteria, “exhibits antimicrobial activity” with gram-positive bacteria (listed as compound (IV)), “exhibits antibacterial activity” with gram-negative bacteria and “exhibits antimicrobial activity” in the data set on gram-negative bacteria (listed as compound (IV)). Also, the Solubility entry in the data set “Solubility” (diethyl ether and ethyl acetate) was “Sparingly soluble”; in the data set “Solubility” (methanol), “Soluble”; in “Solubility” (water) it was “Readily soluble”.
Consider `CC(N)C(=O)NC(CCCNC(=N)N)C(O)CC(=O)OCC1=C(C(=O)O)N2C(=O)[C@@](NC=O)(NC(=O)CCCC(N)C(=O)O)C2SC1` (stereo partly drawn) [TAN-547A], for which the Stability result is listed as “Unstable” in [1] (acidic aqueous solution), “Unstable” in [1] (basic aqueous solution) and “slightly unstable” in data set [1] (neutral aqueous solution).
On to `CC(N)C(=O)NC(C)C(=O)NC(C)C(=O)NC(CCCNC(=N)N)C(O)CC(=O)OCC1=C(C(=O)O)N2C(=O)[C@@](NC=O)(NC(=O)CCCC(N)C(=O)O)C2SC1` (stereo partly drawn) [TAN-547C], for which the results for the Stability entry in data set [1] (acidic aqueous solution), in data set [1] (basic aqueous solution) and in data set [1] (neutral aqueous solution) were “Unstable”, “Unstable” and “slightly unstable”, respectively.

The values are drawn from patent publication US4723004A, “Cephem compounds” (priority 1984, dated 1988).
